Results published in paper PMC9135335, “Structure and kinase activity of bacterial cell cycle regulator CcrZ” (PLoS Genetics, 2022).

Legend:
CcrZ (YtmP) [1] = target: T1, CcrZ (YtmP) (Bacillus subtilis, UniProt C0SPC1); test: ADP-Glo ATPase assay (proxy for kinase activity); assay type: biochemical; conditions: 0.1 mM ATP, 37 °C, 30 min, product not identified
T1 construct: full length, 6xHis-SUMO tag cleaved by SUMO protease, expressed in E. coli; monomer ~30 kDa; selenomethionine derivative for the crystal
T1 sequence (C0SPC1 1-269): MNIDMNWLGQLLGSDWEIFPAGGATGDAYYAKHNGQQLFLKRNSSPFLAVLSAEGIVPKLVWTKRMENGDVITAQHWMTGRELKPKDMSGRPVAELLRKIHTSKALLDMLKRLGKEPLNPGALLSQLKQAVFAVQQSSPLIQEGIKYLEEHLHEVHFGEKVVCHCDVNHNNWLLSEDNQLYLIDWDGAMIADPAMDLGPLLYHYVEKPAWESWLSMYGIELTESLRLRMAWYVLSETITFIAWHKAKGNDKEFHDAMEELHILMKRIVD

CcrZ (YtmP) [2] = target: T1, CcrZ (YtmP); test: X-ray crystallography, SAD, […] Å; assay type: binding; conditions: selenomethionine derivative; pH 5.84, PEG 6000, 1 M LiCl, MgCl2 and D-ribose added but not seen; adenine in ATP pocket, phosphates turned to solvent (non-catalytic pose)
LicA = target: T2, LicA (Streptococcus pneumoniae, UniProt Q8DPI4); test: ADP-Glo ATPase assay (proxy for kinase activity); assay type: biochemical; conditions: 1.25 mM choline, 0.1 mM ATP, 37 °C, 30 min
T2 construct: gene pck; gene codon optimized for B. subtilis, pE-SUMO-kan vector, SUMO tag cleaved, expressed in E. coli BL21
T2 sequence (Q8DPI4 entry or part of it): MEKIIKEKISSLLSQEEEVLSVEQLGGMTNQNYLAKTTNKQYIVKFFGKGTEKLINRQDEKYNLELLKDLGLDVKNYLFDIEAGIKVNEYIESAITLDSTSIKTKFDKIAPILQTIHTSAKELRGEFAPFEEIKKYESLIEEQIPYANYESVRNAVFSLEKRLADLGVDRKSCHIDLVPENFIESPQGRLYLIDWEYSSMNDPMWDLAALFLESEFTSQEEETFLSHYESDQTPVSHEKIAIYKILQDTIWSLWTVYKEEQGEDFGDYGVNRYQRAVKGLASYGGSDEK

OC1OC[C@@H](O)[C@@H](O)[C@H]1O (stereo partly drawn) [D-ribose]
ADP-Glo ATPase assay (proxy for kinase activity) (CcrZ (YtmP) [1]; 5 mM D-ribose): CcrZ ATPase activity was stimulated in the presence of D-ribose and 2-deoxy-D-ribose

OC[C@H]1OC(O)C[C@@H]1O (stereo partly drawn) [2-deoxy-D-ribose]
ADP-Glo ATPase assay (proxy for kinase activity) (CcrZ (YtmP) [1]; 5 mM 2-deoxy-ribose): CcrZ ATPase activity was stimulated in the presence of D-ribose and 2-deoxy-D-ribose

Nc1ncnc2c1ncn2[C@@H]1O[C@H](COP(=O)(O)OP(=O)(O)NP(=O)(O)O)[C@@H](O)[C@H]1O [AMP-PNP]
X-ray crystallography, SAD, 2.6 Å (CcrZ (YtmP) [2]): we solved the crystal structure of B. subtilis CcrZ bound to AMP-PNP

C[N+](C)(C)CCO [choline]
ADP-Glo ATPase assay (proxy for kinase activity) (LicA): CcrZ does not have activity on choline while LicA shows robust activity
